# Test results as given in article PMC2836207 (Journal of medicinal chemistry, 2009).
# Target: MDA-MB-231 cells (Homo sapiens, UniProt P05556+P26006)
# Assay: on-bead whole cell binding assay
# Type: cell-based
# Settings: cell-growth-on-bead assay
# MDA-MB-231 cells, sequence (P26006 33-1051): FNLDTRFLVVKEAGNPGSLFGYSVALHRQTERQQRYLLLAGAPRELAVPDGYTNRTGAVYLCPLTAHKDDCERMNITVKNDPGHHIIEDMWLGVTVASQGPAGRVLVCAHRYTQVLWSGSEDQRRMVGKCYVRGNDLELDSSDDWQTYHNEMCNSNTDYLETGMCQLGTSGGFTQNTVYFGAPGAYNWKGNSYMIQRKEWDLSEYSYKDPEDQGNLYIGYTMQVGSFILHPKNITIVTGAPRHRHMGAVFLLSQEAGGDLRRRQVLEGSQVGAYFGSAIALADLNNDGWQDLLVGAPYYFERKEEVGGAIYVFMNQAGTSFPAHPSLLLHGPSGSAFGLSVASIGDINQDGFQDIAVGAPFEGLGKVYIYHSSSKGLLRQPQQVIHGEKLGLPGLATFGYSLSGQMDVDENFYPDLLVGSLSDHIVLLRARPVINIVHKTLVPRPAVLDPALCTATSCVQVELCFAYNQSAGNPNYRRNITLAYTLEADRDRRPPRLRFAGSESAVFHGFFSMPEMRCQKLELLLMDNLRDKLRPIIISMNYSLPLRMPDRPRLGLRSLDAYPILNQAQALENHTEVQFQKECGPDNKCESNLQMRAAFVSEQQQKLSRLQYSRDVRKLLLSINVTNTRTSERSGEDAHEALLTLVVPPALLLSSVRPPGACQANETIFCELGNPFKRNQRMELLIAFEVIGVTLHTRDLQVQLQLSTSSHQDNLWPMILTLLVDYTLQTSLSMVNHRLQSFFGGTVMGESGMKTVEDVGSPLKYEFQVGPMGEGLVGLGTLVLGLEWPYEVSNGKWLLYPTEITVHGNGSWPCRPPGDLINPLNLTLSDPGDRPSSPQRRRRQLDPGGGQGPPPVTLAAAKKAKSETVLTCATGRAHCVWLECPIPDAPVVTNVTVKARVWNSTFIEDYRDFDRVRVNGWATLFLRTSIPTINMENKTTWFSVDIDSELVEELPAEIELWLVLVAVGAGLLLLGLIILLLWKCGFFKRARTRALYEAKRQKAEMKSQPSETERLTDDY
# MDA-MB-231 cells, sequence (P05556 21-798): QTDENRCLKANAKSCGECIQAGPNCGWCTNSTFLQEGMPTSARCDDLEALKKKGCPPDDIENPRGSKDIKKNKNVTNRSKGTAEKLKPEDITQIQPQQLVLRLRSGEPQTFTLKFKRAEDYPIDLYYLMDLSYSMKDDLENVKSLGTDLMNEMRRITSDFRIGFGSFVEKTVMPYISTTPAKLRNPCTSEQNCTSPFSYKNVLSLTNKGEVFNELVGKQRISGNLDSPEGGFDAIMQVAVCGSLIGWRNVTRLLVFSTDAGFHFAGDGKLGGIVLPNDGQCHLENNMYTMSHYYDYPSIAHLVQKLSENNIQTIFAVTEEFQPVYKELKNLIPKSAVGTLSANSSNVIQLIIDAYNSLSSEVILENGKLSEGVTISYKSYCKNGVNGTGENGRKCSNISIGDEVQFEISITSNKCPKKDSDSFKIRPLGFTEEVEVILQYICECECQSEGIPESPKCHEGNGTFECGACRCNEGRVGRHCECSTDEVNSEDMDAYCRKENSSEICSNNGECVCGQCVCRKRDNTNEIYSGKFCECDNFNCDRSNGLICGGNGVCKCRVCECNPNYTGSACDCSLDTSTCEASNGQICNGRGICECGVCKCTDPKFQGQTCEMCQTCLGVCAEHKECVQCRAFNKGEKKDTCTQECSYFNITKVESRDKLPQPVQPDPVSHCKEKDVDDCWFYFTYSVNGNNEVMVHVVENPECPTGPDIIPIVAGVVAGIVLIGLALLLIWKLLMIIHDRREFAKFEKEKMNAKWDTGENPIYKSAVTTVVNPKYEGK
substance,measurement,value
cEGLGEWc,cell binding to peptide bead,shown to bind
